Assays:
[1] = Terminal elimination of metabolite of epirubicin following intravenous epirubicin at 40-135 mg.m-2 dose in cancer patients; type: ADME, organism-based, Plasma; settings: human, in vivo
[2] = Half-life of terminal elimination phase of epirubicin following intravenous epirubicin at 25-35 mg.m-2 dose in cancer patients; type: ADME, organism-based; settings: human, plasma
[3] = Cumulative biliary excretion of epirubicin and its metabolites following epirubicin at 50 mg.m-2 dose in cancer patients; type: ADME, organism-based, Bile; settings: human, in vivo; at 50 mg/m2
[4] = Urinary excretion of epirubicin following epirubicin at 75-90 mg.m-2 dose in cancer patients; type: ADME, organism-based; settings: human, urine; read-out: Compound recovery
[5] = Volume of distribution as steady state of epirubicin following intravenous epirubicin at 40-60 mg.m-2 dose in cancer patients; type: ADME, organism-based, Plasma; settings: human, in vivo
[6] = Terminal elimination of metabolite of epirubicin following intravenous epirubicin at 30-90 mg.m-2 dose in cancer patients; type: ADME, organism-based, Plasma; settings: human, in vivo
[7] = Mean AUC (8-48 h) of epirubicin following intravenous epirubicin at 1 mg.Kg-1 dose administered approximately 25 minute prior to epirubicin once weekly for four weeks in dog; type: ADME, organism-based, Canis lupus familiaris; settings: Beagle, plasma
[8] = Renal clearance of epirubicin following epirubicin at 60 mg.m-2 dose in cancer patients; type: ADME, organism-based, Kidney; settings: human, in vivo, iv, read-out: Renal clearance (converted)
[9] = Cumulative urinary excretion of epirubicin and its metabolites following epirubicin at 50 mg.m-2 dose in cancer patients; type: ADME, organism-based, Urine; settings: human, in vivo; at 50 mg/m2
[10] = Plasma clearance of epirubicin following intravenous epirubicin at 60 mg.m-2 dose in cancer patients; type: ADME, organism-based; settings: human, in vivo
[11] = Volume of distribution as steady state of epirubicin following intravenous epirubicin at 60-90 mg.m-2 dose in cancer patients; type: ADME, organism-based, Plasma; settings: human, in vivo
[12] = Cumulative urinary excretion of epirubicin and its metabolites following epirubicin at 60 mg.m-2 dose in cancer patients; type: ADME, organism-based, Urine; settings: human, in vivo; at 60 mg/m2
[13] = Mean plasma clearance of epirubicin following intravenous epirubicin at 60 mg.m-2 dose in cancer patients; type: ADME, organism-based; settings: human, read-out: CLp (converted)
[14] = Half-life of terminal elimination phase of epirubicin following intravenous epirubicin at 30-90 mg.m-2 dose in cancer patients; type: ADME, organism-based; settings: human, plasma
[15] = Initial phase half-life of epirubicin following intravenous epirubicin at 70 mg.m-2 dose in cancer patients; type: ADME, organism-based, Plasma; settings: human, in vivo
[16] = Initial phase half-life of epirubicin following intravenous epirubicin at 60 mg.m-2 dose in cancer patients; type: ADME, organism-based, Plasma; settings: human, in vivo
[17] = Cumulative urinary excretion of epirubicin and its metabolites following epirubicin at 75-90 mg.m-2 dose in cancer patients; type: ADME, organism-based, Urine; settings: human, in vivo
[18] = AUC of epirubicin following intrahepatic epirubicin solution at 1 mg.Kg-1 dose in rabbit; type: ADME, organism-based, Oryctolagus cuniculus; settings: both, New Zealand White, blood
[19] = Plasma clearance of epirubicin following intravenous epirubicin at 90-150 mg.m-2 dose in cancer patients; type: ADME, organism-based; settings: human, in vivo
[20] = Volume of distribution of epirubicin following intravenous epirubicin at 1 mg.Kg-1 dose in rabbit; type: ADME, organism-based, Oryctolagus cuniculus; settings: both, New Zealand White, plasma
[21] = (§1) Terminal half-life of epirubicinol following intravenous epirubicin at 1 mg.Kg-1 dose in rabbit; type: ADME, organism-based, Oryctolagus cuniculus, New Zealand White, Plasma; settings: in vivo
[22] = as §1; type: ADME, organism-based, Oryctolagus cuniculus, New Zealand White, Plasma; settings: in vivo; remark: listed apart in the source
[23] = Volume of distribution as steady state of epirubicin following intravenous epirubicin at 25-35 mg.m-2 dose in cancer patients; type: ADME, organism-based, Plasma; settings: human, in vivo
[24] = Increase in serum phospholipid level following reference intravenous epirubicin at 1 mg.Kg-1 per week in rat; type: toxicity, organism-based, SD; settings: in vivo
[25] = Volume of distribution at steady state following intravenous epirubicin at 150 mg.m-2 dose in patients with advanced cancer; type: ADME, organism-based; settings: human, plasma, read-out: Vss
[26] = Plasma clearance of epirubicin following intravenous epirubicin at 75-90 mg.m-2 dose in cancer patients; type: ADME, organism-based; settings: human, in vivo
[27] = Increase in serum total cholesterol level following reference intravenous epirubicin at 1 mg.Kg-1 per week in rat; type: toxicity, organism-based, SD; settings: in vivo
[28] = Plasma clearance of epirubicin following intravenous epirubicin at 40-135 mg.m-2 dose in cancer patients; type: ADME, organism-based; settings: human, in vivo
[29] = AUC of epirubicin following intravenous epirubicin emulsion at 1 mg.Kg-1 dose in rabbit; type: ADME, organism-based, Oryctolagus cuniculus; settings: both, New Zealand White, blood
[30] = Mean residence time (MRT) of epirubicin following intravenous epirubicin emulsion at 1 mg.Kg-1 dose in rabbit; type: ADME, organism-based, Oryctolagus cuniculus; settings: both, New Zealand White, blood, read-out: Mean residence time (converted)
[31] = Detection of epirubicin in tumor following single intravenous epirubicin at 10 mg.Kg-1 dose in female mouse bearing colon tumor; type: ADME, organism-based, BALB/c, Neoplasm; settings: in vivo
[32] = Plasma clearance of 4'-epiadriamycin following intravenous 4'-epiadriamycin at 1.27 mg.Kg-1 dose in dog; type: ADME, organism-based, Canis lupus familiaris; settings: Beagle, read-out: Clp
[33] = Intermediate phase half-life of epirubicin following intravenous epirubicin at 75 mg.m-2 dose in cancer patients; type: ADME, organism-based, Plasma; settings: human, in vivo
[34] = Incidence of persistent proteinuria following reference intravenous epirubicin at 1 mg.Kg-1 per week in rat; type: toxicity, organism-based, SD; settings: in vivo
[35] = Volume of distribution of epirubicin following intrahepatic epirubicin emulsion at 1 mg.Kg-1 dose in rabbit; type: ADME, organism-based, Oryctolagus cuniculus; settings: both, New Zealand White, blood
[36] = Mean estimated half-life of epirubicin following intravenous epirubicin at 1 mg.Kg-1 dose administered approximately 25 minute prior to epirubicin once weekly for four weeks in dog; type: ADME, organism-based, Canis lupus familiaris; settings: Beagle, plasma
[37] = Plasma clearance of epirubicin following intravenous epirubicin at 75 mg.m-2 dose in cancer patients; type: ADME, organism-based; settings: human, in vivo
[38] = Terminal half-life of epirubicinol following intravenous epirubicin at 3 mg.Kg-1 dose in rabbit; type: ADME, organism-based, Oryctolagus cuniculus, New Zealand White, Plasma; settings: in vivo
[39] = Biliary excretion of epirubicin following epirubicin at 50 mg.m-2 dose in cancer patients; type: ADME, organism-based; settings: human, bile, at 50 mg/m2, read-out: Compound recovery
[40] = Urinary elimination of 4'-epiadriamycin following intravenous bolus 4'-epiadriamycin at 10 mg.Kg-1 dose in rat; type: ADME, organism-based; settings: SD, urine, read-out: Compound recovery
[41] = Urinary excretion of epirubicin following epirubicin at 60-150 mg.m-2 dose in cancer patients; type: ADME, organism-based; settings: human, urine; read-out: Compound recovery
[42] = Decrease in albumin due to persistent proteinuria following reference intravenous epirubicin at 1 mg.Kg-1 per week in rat; type: toxicity, organism-based, SD, Serum; settings: in vivo
[43] = Mean residence time (MRT) of epirubicin following intrahepatic epirubicin emulsion at 1 mg.Kg-1 dose in rabbit; type: ADME, organism-based, Oryctolagus cuniculus; settings: both, New Zealand White, blood, read-out: Mean residence time (converted)
[44] = Recovery of epirubicin following intravenous epirubicin at 4 mg.Kg-1 dose in rat; type: ADME, organism-based, SD, Plasma; settings: in vivo
[45] = Volume of distribution at steady state following epirubicin at 60 mg.m-2 dose in patients with cancer; type: ADME, organism-based; settings: human, plasma, read-out: Vss
[46] = Volume of distribution as steady state of epirubicin following intravenous epirubicin at 30-90 mg.m-2 dose in cancer patients; type: ADME, organism-based, Plasma; settings: human, in vivo
[47] = Urinary excretion of epirubicin following epirubicin at 50 mg.m-2 dose in cancer patients; type: ADME, organism-based; settings: human, urine, at 50 mg/m2, read-out: Compound recovery
[48] = Recovery of epirubicin following intraperitoneal epirubicin at 4 mg.Kg-1 dose in hamster; type: ADME, organism-based, Cricetulus griseus, Plasma; settings: chinese hamster, in vivo, ip
[49] = Half-life of epirubicin in plasma following single intravenous epirubicin at 10 mg.Kg-1 dose in female mouse bearing colon tumor; type: ADME, organism-based; settings: BALB/c
[50] = Detection of epirubicin in heart following single intravenous epirubicin at 10 mg.Kg-1 dose in female mouse bearing colon tumor; type: ADME, organism-based, BALB/c; settings: in vivo

## COc1cccc2c1C(=O)c1c(O)c3c(c(O)c1C2=O)C[C@@](O)(C(=O)CO)C[C@@H]3O[C@H]1C[C@H](N)[C@@H](O)[C@H](C)O1.Cl [EPIRUBICIN HYDROCHLORIDE]
[1]
  t1/2: 18.1 h
[2]
  half-life: 29.3 h
[3]
  Radiolabel recovery: 34.9%
[4]
  dose excreted at 48 h: 5.9%
[5]
  Vss: 592 L.m-2
[6]
  t1/2: 32.2 h
[7]
  AUC: 233 ng·h/mL
[8]
  CL renal: 71.7 mL/min
[9]
  Radiolabel recovery: 20%
[10]
  CLp: 43.1 L.h-1.m-2
[11]
  Vss: 1844 L.m-2
[12]
  Radiolabel recovery: 11.3%
[13]
  clearance: 1250 mL/min
[14]
  half-life: 39.4 h
[15]
  t1/2: 3.15 min
[16]
  t1/2: 2.92 min
[17]
  Radiolabel recovery: 10.7%
[18]
  AUC: 65.5 ng·h/mL
[19]
  CLp: 48 L.h-1.m-2
[20]
  Vd: 368 L/kg
[21]
  t1/2: 0.63 h
[22]
  t1/2: 13.97 h
[23]
  Vss: 925 L.m-2
[24]
  PHOSLPD_CHANGE: OUTCOME = Increased
[25]
  Vd: 21 L/kg
[26]
  CLp: 94.9 L.h-1.m-2
[27]
  CHOL_CHANGE: OUTCOME = Increased
[28]
  CLp: 50.9 L.h-1.m-2
[29]
  AUC: 134 ng·h/mL
[30]
  MRT: 0.835 h
[31]
  Compound recovery: OUTCOME = Observed
[32]
  clearance: 589 mL/min
[33]
  t1/2: 1.7 h
[34]
  Incidence: OUTCOME = Observed
[35]
  Vd: 137 L/kg
[36]
  half-life: 51.1 h
[37]
  CLp: 29 L.h-1.m-2
[38]
  t1/2: 1.66 h
[39]
  dose excreted at 96 h: 21.9%
[40]
  dose excreted: 4.83%
[41]
  dose excreted at 168 h: 3.2%
[42]
  ALB_CHANGE: OUTCOME = Decreased
[43]
  MRT: 1.11 h
[44]
  Compound recovery: 56 10^-9M
[45]
  Vd: 32 L/kg
[46]
  Vss: 1858 L.m-2
[47]
  dose excreted at 48 h: 6.2%
  dose excreted at 96 h: 9.6%
[48]
  Compound recovery: 83 10^-9M
[49]
  half-life: 15.6 h
[50]
  Compound recovery: OUTCOME = Observed
